# Earlier results in patent US20120165520A1, “PROCESS FOR THE SYNTHESIS OF PRODRUGS OF OPIOIDS” (priority 2010, published 2012).
# Columns and labels:
# [1] = not given; remark: listed apart in the source
SMILES,oral bioavailability,fraction of an oral dose converted to dihydromorphine [1]
"CCC1(c2cccc(O)c2)CCCCN(C)C1 (centres unmarked) [Meptazinol, meptazinol]",< 10%,
COc1ccc2c3c1O[C@H]1[C@@H](O)CC[C@H]4[C@@H](C2)N(C)CC[C@@]341 [dihydrocodeine],,less than 2%
